Source: patent US20130157959A1, “USE OF HADES AS TUMOR SUPPRESSOR TARGET” (KONKUK UNIVERSITY INDUSTRIAL COOPERATION CORP, priority 2010, published 2013)
Peptide text beside a SMILES is read from it. * marks the point of attachment. Cbz = O=C(OCc1ccccc1)*

Columns and labels:
Format in all cases: cell-based
p53 [1] = experiment: p53 level in Hades-transfected H1299 cells with MG132; conditions: H1299, 10 μM MG132 4 h, FIG. 2e
Method: To gain a more detailed insight into the function of Hades in p53 downregulation, we investigated the regulation of p53 stability by Hades. H1299 cells were transfected with each indicated plasmid for 24 h and untreated or treated with 10 μM MG132 for 4 h. The reduced level of p53 by Hades was recovered by treatment of MG132 (FIG. 2e). To generate of stable Hades-knockdown MCF7 cells using the shRNA, the cells were transfected with pSuper-Hades 1 or 2. After selection for 14 days in media containing G418 (500 μg/ml), hades mRNA levels were measured by RT-PCR and the levels of endogenous Hades and p53 proteins were measured by immunoblotting. […] Furthermore, Stable Hades-knockdown MCF7 cells using Hades shRNA were incubated with cycloheximide (CHX, 150 μg/ml). The half-life of p53 protein was greater in pSuper-Hades transfected cells (lower panel) than in control (upper panel) (FIG. 2g).

p53 [2] = experiment: In vivo p53 ubiquitination assay in H1299 cells; conditions: H1299 cotransfected with p53 and GFP-Hades, MG132 10 μM 4 h, FIG. 3e
Method: For in vivo p53 ubiquitination assay, HCT116 p53^−/− or H1299 cells were transfected with GFP, GFP-Hades, or GFP-Hades RING MT. At 48 hr after transfection, cells were treated with 10 μM MG132 for 4 hr. The ubiquitinated lysates were analyzed by immunoprecipitation using anti-p53 antibody followed by immunoblotting using anti-Ubiquitin antibody. In vivo p53 ubiquitination analysis, HCT116 p53^−/− or H1299 cells were transformed with GFP, GFP-Hades or GFP-Hades RING MT for 48 hr. After the transformation, cells were incubated for 4 hr using 10 μM MG132. Then, cells were lysed using SDS-containing lysis buffer and heated for […]. […] The anti-p53 immunoprecipitate was analyzed by immunoblotting using anti-polyubiquitin antibody.
Since there are several E2 conjugating enzymes which participate in the ubiquitin-mediated degradation [Smalle et al., Annu Rev Plant Biol. 2004, 555-590 (2004)], we examined which E2 enzyme is responsible for the ubiquitination of p53 by Hades. […] After in vitro ubiquitination, samples were examined SDS-PAGE and detected using autoradiography. […] Moreover, in vitro translated ^35S-labeled p53 was incubated with GST, GST-Hades RP or GST-Mdm2 in the presence of ATP, His-tagged ubiquitin E1 and E2(UbcHSc). p53 ubiquitination was assessed by immunoblotting using anti-p53 antibody. […] The p53 ubiquitination was assessed by immunoblotting using anti-p53 antibody. […]

p53 [3] = experiment: p53 accumulation in CPT-treated MCF7 cells (immunoblotting)
Method: In a prior research, as p53 is rapidly translocated to mitochondria upon camptothecin (CPT) treatment for its exonuclear function [Mihara et al., Molecular Cell 11, 577-590 (2003)]. We examined whether Hades would be able to weaken the exonuclear function of p53 upon CPT treatment. MCF7 cells were transfected with plasmids (1 μg) expressing GFP or GFP-Hades. At 24 h post-transfection, cells were treated with CPT (1 μM) for 6 h. Accumulation of p53 upon CPT treatment was attenuated by Hades expression (FIG. 5e, upper panel). MCF7 cells were transfected with expression plasmid for GFP or GFP-Hades RING MR. At 24 h after transfection, cells were treated with CPT [5 μM] for 6 h and their nuclear and cytoplasmic fractions were collected to measure the expression level of p53. […] Further, MCF7 cells were transfected with the expression plasmids for GFP or GFP-Hades MR. At 24 h after transfection, cells were treated with 1 μM CPT for 24 h. Cells were harvested, lysed and immunoprecipitated with anti-p53 antibody. […] Hades inhibits the interaction between p53 and Bcl-2 in CPT-treated cells. (FIG. 5f) In order to confirm the effect of Hades on CPT-induced apoptosis, MCF7 cells were transfected with plasmids expressing GFP or GFP-Hades. At 24 h post-transfection, cells were treated with CPT (1 μM) for 24 h.

HCT116 p53+/+ cells = experiment: JC-1 mitochondrial membrane potential, HCT116 p53+/+; conditions: 40 nM siRNA 24 h, then 1 μM CPT 24 h, FIG. 5j
Method: For the MTS assay, cells were incubated with CellTiter 96® AQueous Non-Radioactive Cell Proliferation Assay reagent (Promega, USA) for 1 h, and then the O.D. was measured at 490 nm. Apoptosis, DNA content, and mitochondrial membrane potential were determined by flow cytometry using annexin V-PE, propidium iodine, and JC-1 staining, as previous described [Shirangi et al., FASEB J. 16, 420-422 (2002)].
The present inventors investigated the negative role of Hades on p53-dependent apoptosis additionaly using FACS analysis. MCF7 cells were transfected with pSuper or pSuper-Hades, treated with 1 μM CPT for 24 h, and analyzed by FACS to measure the sub-GO fraction. As a result, CPT treatment was higher in Hades knockdown MCF7 cells than in control cells (FIG. 5i). Further, HCT116 p53+/+ and HCT116 p53−/− cells were transfected with 40 nM Hades siRNA or control siRNA. After incubation for 24 h, cells were further treated with 1 μM CPT for 24 h. Cells were harvested and stained with JC-1 for 30 min.

Crm1 = Crm1 (Homo sapiens, UniProt O14980); experiment: p53 level in Hades-transfected H1299 cells with leptomycin B; conditions: H1299 transfected with p53 and GFP-Hades, FIG. 2i
Chain of Crm1 (O14980 whole entry): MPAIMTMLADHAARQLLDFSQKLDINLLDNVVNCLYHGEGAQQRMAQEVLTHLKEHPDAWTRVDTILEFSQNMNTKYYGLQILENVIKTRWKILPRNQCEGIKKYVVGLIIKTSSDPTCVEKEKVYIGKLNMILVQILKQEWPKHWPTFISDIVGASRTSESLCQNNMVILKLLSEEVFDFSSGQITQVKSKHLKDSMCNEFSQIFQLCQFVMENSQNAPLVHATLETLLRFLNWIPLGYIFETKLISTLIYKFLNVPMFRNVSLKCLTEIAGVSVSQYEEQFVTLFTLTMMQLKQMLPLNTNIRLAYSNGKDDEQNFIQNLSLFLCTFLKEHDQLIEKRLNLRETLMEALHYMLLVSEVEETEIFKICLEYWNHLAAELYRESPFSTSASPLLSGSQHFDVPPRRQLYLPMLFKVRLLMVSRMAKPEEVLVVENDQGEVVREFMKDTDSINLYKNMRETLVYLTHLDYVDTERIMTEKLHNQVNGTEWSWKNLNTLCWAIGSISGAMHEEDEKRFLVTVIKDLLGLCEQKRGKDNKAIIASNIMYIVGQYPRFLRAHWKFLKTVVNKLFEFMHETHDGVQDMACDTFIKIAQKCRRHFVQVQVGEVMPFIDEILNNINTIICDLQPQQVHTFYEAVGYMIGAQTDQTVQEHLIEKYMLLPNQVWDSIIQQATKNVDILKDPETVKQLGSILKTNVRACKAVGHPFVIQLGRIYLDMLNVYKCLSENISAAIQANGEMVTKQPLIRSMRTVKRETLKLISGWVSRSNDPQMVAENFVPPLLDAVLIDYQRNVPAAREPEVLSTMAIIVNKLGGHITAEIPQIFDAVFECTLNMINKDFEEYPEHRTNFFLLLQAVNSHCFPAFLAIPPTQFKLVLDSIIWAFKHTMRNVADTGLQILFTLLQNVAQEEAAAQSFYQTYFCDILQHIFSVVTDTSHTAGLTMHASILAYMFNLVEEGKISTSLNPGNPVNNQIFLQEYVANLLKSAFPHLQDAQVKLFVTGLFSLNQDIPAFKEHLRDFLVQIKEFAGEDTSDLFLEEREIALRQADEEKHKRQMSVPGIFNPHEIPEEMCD
Method: Next, we monitored the localization of p53 after the knockdown of Hades. […] The levels of endogenous p53 were measured in fractionated extracts of stable MCF7 cells. […] And also, we used a p53 expression plasmid encoding a mutant p53 (C153Y) that is localized mainly to the cytoplasm but not in the nucleus [Nie et al., J Biol Chem. 282, 14616-14625 (2007)]. We performed immunoblotting assay of ectopically expressed wild-type or mutant p53(C135Y). […] At 24 h after transfection, ectopically expressed wild-type p53 and mutant p53 levels were measured by immunoblotting.

p53 [4] = experiment: Bax-luc / Puma-luc luciferase reporter assay; conditions: H1299, LMB 20 nM 4 h, FIG. 4b
Method: Aliquots of 5×10^4 cells were plated in 24-well plates. The following was added to each well: 500 ng of pGL plasmid containing the promoter p53 binding site for Bax or Puma, 100 ng of p53 plasmid, and 200 ng of Hades or Hades MT plasmid. At 48 h after transfection, cells were harvested and cell extracts were prepared by addition of 50 μl Passive lysis buffer (Promega). Luciferase activities were measured using a Biotek synergy HT microplate reader. The relative luciferase activities were normalized by mesuring β-galactosidase activities using Luminescent β-galactosidase detection kit II (Takara-Clontech).
Since E3 ligase activities necessary for p53 ubiquitination can also regulate p53 function [Dornan et al., Nature 429, 86-92 (2004); Leng et al., Cell 112, 779-791 (2003)], we explored the effect of Hades on p53-dependent growth suppression and apoptosis. First, we examined whether Hades affects p53-mediated transcriptional activation using a luciferase reporter assay (FIG. 4a). H1299 cells were cotransfected with expression plasmids for p53 and GFP, GFP-Hades, or GFP-Hades MT, together with Bax-luc or Puma-luc reporter plasmid. At 24 h after transfection, the relative luciferase activities were measured by luminometer. […] At 24 h after transfection, luciperase activation and p53 experssion were measured.

CC(C)C[C@@H](C=O)NC(=O)[C@H](CC(C)C)NC(=O)[C@H](CC(C)C)NC(=O)OCc1ccccc1 [MG132] (Cbz-Leu-Leu-Leu-aldehyde)
level of p53 reduced by Hades (p53 [1]): recovered
polyubiquitinated p53 (p53 [2]): only detected in Hades-transfected cells treated with MG132

CC[C@@]1(O)C(=O)OCc2c1cc1n(c2=O)Cc2cc3ccccc3nc2-1 [CPT, Camptothecin]
expression level of p53 (p53 [3]; MCF7, 1 μM CPT 24 h, FIG. 5f): accumulation of p53 expression was observed
expression level of p53 in nuclear and cytoplasmic fractions (p53 [3]; MCF7, CPT 5 μM 6 h, FIG. 5e lower panel): accumulated in nucleus and cytoplasm

Hades siRNA: siRNAs for Hades from Ambion, GGGAUUUUUAUCUCGAGGC and CGUGUGUGUAGAGGACAAA; antisense SEQ ID NO: 4 and 5 (antisense 1 GCCUCGAGAUAAAAAUCCCTG; antisense 2 UUUGUCCUCUACACACACGTG; sense strands lack entries, further chemistry not given here)
loss of mitochondrial membrane potential (JC-1) (HCT116 p53+/+ cells): only detectable in HCT116 p53+/+ cells

CCC(=C/[C@H](C)C/C=C/C(C)=C/[C@@H](C)C(=O)[C@@H](C)[C@H](O)[C@@H](C)C/C(C)=C/C(=O)O)/C=C/[C@@H]1OC(=O)C=C[C@@H]1C [LMB, Leptomycin B]
level of p53 reduced by Hades (Crm1): restored the level of p53
p53 transcriptional activity (relative luciferase activity) (p53 [4]): not reduced by Hades in the presence of LMB
